# From PubChem BioAssay (NCI)
#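 Assay format: 96-well plates, 48-hour exposure. The concentration for 50% growth inhibition is given as GI50. Definition used: TGI = concentration required for complete inhibition of growth.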
# Legend:
# Assay in all cases: NCI tumour cell line growth inhibition, 48 h
# [1] = test system: TK-10 renal
# [2] = test system: BT-549 breast
# [3] = test system: NCI-H23 lung
# [4] = test system: SK-MEL-5 melanoma
# [5] = test system: SK-OV-3 ovarian
# [6] = test system: SW-620 colon
# [7] = test system: RPMI-8226 leukemia
# [8] = test system: U251 CNS
SMILES,GI50 [1],TGI [1],GI50 [2],TGI [2],GI50 [3],TGI [3],GI50 [4],TGI [4],GI50 [5],TGI [5],GI50 [6],TGI [6],GI50 [7],TGI [7],GI50 [8],TGI [8]
CC1CC(C)/C(=N/NC(N)=O)C(C(O)CC2CCC(=O)NC2=O)C1 (centres undefined),1.64 µM,10.2 µM,7.08 µM,> 100 µM,3.57 µM,> 100 µM,2.85 µM,34.8 µM,4.08 µM,> 100 µM,2.9 µM,> 100 µM,6.77 µM,94.1 µM,1.96 µM,91.1 µM
CC(C)(C)c1cn2cccc(C(=O)N3CCN(CC(=O)Nc4ccc(Cl)cc4C(=O)c4ccccc4Cl)CC3)c2n1,16 µM,> 100 µM,3.8 µM,19.7 µM,18.8 µM,> 100 µM,3.62 µM,12.7 µM,27.5 µM,> 100 µM,7.81 µM,29.1 µM,2.67 µM,7.26 µM,7.68 µM,25.5 µM
COc1cc(Nc2ncc3c(C)nc(-c4cccc(Oc5ccccc5)c4)n3n2)cc(OC)c1OC,3.52 µM,> 20.6 µM,6.86 µM,> 25 µM,6.68 µM,> 25 µM,3.28 µM,6.74 µM,1.74 µM,> 25 µM,9.61 µM,> 25 µM,6.08 µM,> 25 µM,6.51 µM,> 25 µM
Cc1ccc(/C=C/C(=O)c2ccc(N)cc2)c(C)c1,3.13 µM,11.9 µM,1.68 µM,3.4 µM,2.19 µM,5.21 µM,9.47 µM,21.6 µM,16.5 µM,31.3 µM,1.92 µM,3.88 µM,2.12 µM,4.99 µM,6.5 µM,19.3 µM
O=c1oc2ccc(F)cc2c(=O)n1-c1ccc(Cl)cc1F,3.73 µM,12.2 µM,0.488 µM,2.43 µM,0.604 µM,5.16 µM,0.29 µM,0.89 µM,0.584 µM,2.58 µM,1.24 µM,21.2 µM,0.356 µM,1.9 µM,0.868 µM,> 59.8 µM
COc1ccc(/C(=N\O)c2cc(OC)c(OC)c(OC)c2)c(OC)c1N,> 100 µM,> 100 µM,3.86 µM,> 100 µM,6.45 µM,> 100 µM,5.32 µM,> 100 µM,3.82 µM,> 100 µM,3.97 µM,> 100 µM,4.44 µM,> 100 µM,5.17 µM,> 100 µM
COc1cc(-n2cc(-c3ccc(F)cc3)[nH]c2=S)cc(OC)c1OC,> 100 µM,> 100 µM,58 µM,> 100 µM,> 100 µM,> 100 µM,> 100 µM,> 100 µM,38.2 µM,> 100 µM,> 100 µM,> 100 µM,> 100 µM,> 100 µM,> 100 µM,> 100 µM
Oc1ccccc1Nc1nc2ccccc2c2occc12,1.9 µM,6.65 µM,7.59 µM,20.7 µM,4.48 µM,17.5 µM,6.1 µM,19.4 µM,11.1 µM,25.2 µM,13.2 µM,26 µM,9.11 µM,57.8 µM,12.3 µM,24.7 µM
COc1ccc2c(c1)C(=O)/C(=C/c1ccc([N+](=O)[O-])s1)O2,0.767 µM,,0.246 µM,0.617 µM,0.709 µM,3.53 µM,0.326 µM,1.04 µM,2.68 µM,7.77 µM,0.211 µM,0.507 µM,0.26 µM,0.843 µM,0.287 µM,0.943 µM
CO/N=C(\COc1ccc2c(c1)oc(=O)c1cc(OC)ccc12)c1ccc(F)cc1,14.7 µM,29.5 µM,23.4 µM,55.2 µM,37.6 µM,> 100 µM,55.6 µM,> 100 µM,48.5 µM,> 100 µM,34.8 µM,> 100 µM,32.8 µM,> 100 µM,20.3 µM,40.4 µM
CS(=O)(=O)Nc1cccc(-c2ccc3c(NC(=O)C4CC4)n[nH]c3c2)c1,24.6 µM,> 25 µM,5.86 µM,> 25 µM,10.2 µM,> 25 µM,0.641 µM,> 13 µM,3.92 µM,15.7 µM,2.14 µM,> 25 µM,10.8 µM,> 25 µM,1.49 µM,> 25 µM
CCCCCCCCCCCCCCCCOC(=O)c1c(C)[nH]c(/C=C2\N=C(c3ccc[nH]3)C=C2OC)c1C,0.759 µM,3.36 µM,2.23 µM,20.4 µM,1.15 µM,12.7 µM,0.119 µM,0.703 µM,2.35 µM,5.9 µM,0.182 µM,> 100 µM,0.0958 µM,> 100 µM,0.638 µM,7.04 µM
O=C(Nc1ccc(Cl)cc1)c1ccc([N+](=O)[O-])o1,2.4 µM,5.32 µM,1.9 µM,4.06 µM,1.81 µM,4.54 µM,3.42 µM,13.2 µM,2.64 µM,7.27 µM,1.12 µM,2.68 µM,3.72 µM,38.1 µM,1.36 µM,2.87 µM
O=C(Nc1cccnc1)c1cccc([N+](=O)[O-])c1,> 100 µM,> 100 µM,> 100 µM,> 100 µM,> 100 µM,> 100 µM,> 100 µM,> 100 µM,> 100 µM,> 100 µM,> 100 µM,> 100 µM,> 100 µM,> 100 µM,> 100 µM,> 100 µM
c1ccc2c(-c3nc4ccccc4[nH]3)cccc2c1,8.15 µM,55.7 µM,3.3 µM,80 µM,4.2 µM,> 100 µM,4.28 µM,72.4 µM,4.04 µM,27.3 µM,1.91 µM,53.8 µM,3.19 µM,34.5 µM,3.72 µM,26.3 µM
